Experimental data published in PubChem BioAssay (NCI).
Where “and” joins values, the source holds several entries; their conditions need not be identical. Equal entries are not always repeated.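 Dose response: 5 concentrations. Exposure: 48 h. Format: 96-well plates. Endpoint: linear interpolation; highest concentration if not reached. GI50: concentration for 50% inhibition of growth. TGI denotes the concentration required for complete inhibition of growth.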

How the values were obtained:
Assay in all cases: DTP human tumour cell line panel, 48 h
RPMI-8226 leukemia = test system: RPMI-8226 leukemia
SK-MEL-28 melanoma = test system: SK-MEL-28 melanoma
UACC-62 melanoma = test system: UACC-62 melanoma
OVCAR-8 ovarian = test system: OVCAR-8 ovarian
NCI-H23 lung = test system: NCI-H23 lung
NCI/ADR-RES ovarian = test system: NCI/ADR-RES ovarian
NCI-H460 lung = test system: NCI-H460 lung
COLO 205 colon = test system: COLO 205 colon
HS 578T breast = test system: HS 578T breast
U251 CNS = test system: U251 CNS

Row | Compound | GI50 (RPMI-8226 leukemia) | TGI (RPMI-8226 leukemia) | GI50 (SK-MEL-28 melanoma) | TGI (SK-MEL-28 melanoma) | GI50 (UACC-62 melanoma) | TGI (UACC-62 melanoma) | GI50 (OVCAR-8 ovarian) | TGI (OVCAR-8 ovarian) | GI50 (NCI-H23 lung) | TGI (NCI-H23 lung) | GI50 (NCI/ADR-RES ovarian) [µM] | TGI (NCI/ADR-RES ovarian) [µM] | GI50 (NCI-H460 lung) | TGI (NCI-H460 lung) | GI50 (COLO 205 colon) | TGI (COLO 205 colon) | GI50 (HS 578T breast) | TGI (HS 578T breast) [µM] | GI50 (U251 CNS) | TGI (U251 CNS)
1 | O=C(NCCNC1=CC(=O)c2nc3ccccc3c3ccnc1c23)c1cnccn1 | 1.1 µM | 24.3 µM | 40.9 µM | > 100 µM | 73.7 µM | > 100 µM | 24.3 µM | > 100 µM | 46.4 µM | > 100 µM | 96.6 | > 100 | 18.4 µM | > 100 µM | 52 µM | > 100 µM | 32.7 µM | > 100 | 31 µM | > 100 µM
2 | CC(C)(C)c1cnc(CSc2cnc(NC(=O)C3CCNCC3)s2)o1 | 0.118 µM and 0.243 µM | 0.45 µM and 0.768 µM | 0.166 µM and 0.221 µM | 0.523 µM and 1.06 µM | 0.16 µM and 0.178 µM | 0.403 µM and 0.702 µM | 0.307 µM and 0.365 µM | 19.7 µM and > 10 µM | 0.251 µM and 0.211 µM | 0.767 µM and > 2.56 µM | 45.5 | > 100 | 0.306 µM and 0.319 µM | 25.4 µM and > 10 µM | 0.0687 µM and 0.0561 µM | 0.207 µM and 0.24 µM | 0.334 µM and 0.226 µM | > 2.64 | 0.193 µM and 0.2 µM | 27.6 µM and > 10 µM
3 | CC(=O)O[C@H]1C(=O)[C@@]2(C)C([C@H](OC(=O)c3ccccc3)[C@]3(O)C[C@H](OC(=O)[C@H](O)[C@@H](NC(=O)c4ccc(Cl)cc4)c4ccccc4)C(C)=C1C3(C)C)C1(OC(C)=O)CO[C@@H]1C[C@@H]2O (some centres not stated) | – | 11.7 µM | – | 25 µM | – | 0.178 µM | – | – | – | 25 µM and > 100 µM | – | 25 | – | 25 µM and > 100 µM | – | – | – | 0.185 | – | –
4 | O=C(Cc1csc2nc(-c3ccc(Br)cc3)cn12)N/N=C/c1ccccc1O | 2.83 µM | 20.7 µM | 11.9 µM | 24.2 µM | 2.09 µM | 7.28 µM | 2.28 µM | 12.4 µM | 3.43 µM | 14 µM | 2.53 | 6.83 | 15.7 µM | > 100 µM | 5.08 µM | 23.1 µM | 13.4 µM | 42.3 | 3.67 µM | 15.1 µM
5 | Cc1nc2sc(C(=O)Nc3cccc(Cl)c3)c(N)c2cc1C(O)c1ccccc1 (configuration not stated) | 0.848 µM | > 100 µM | 3.12 µM | 22.3 µM | 0.757 µM | 16 µM | 2.51 µM | > 100 µM | 1.4 µM | 19.4 µM | 0.929 | 13.1 | 0.379 µM | 1.85 µM | 3.31 µM | > 100 µM | 0.351 µM | 4.89 | 0.584 µM | > 100 µM
6 | COc1cc(-c2ccc[nH]2)[nH]c1/C=C1\N=C(C)C(C(=O)NC(C)C)=C1C | 2.23 µM | 5.97 µM | 7.17 µM | 19.8 µM | 2.68 µM | 6.77 µM | 3.43 µM | 13.5 µM | 3.63 µM | 16 µM | 4.24 | 16.5 | 2.44 µM | 12.7 µM | 3.25 µM | 14.1 µM | 2.84 µM | 10.5 | 2.59 µM | 13.3 µM
7 | Fc1cccc(C2ON=C(c3ccccc3)N2C23CC4CC(CC(C4)C2)C3)c1 (configuration not stated) | – | > 10 µM | – | > 10 µM | – | > 10 µM | – | > 10 µM | – | > 10 µM | – | > 10 | – | > 10 µM | – | > 10 µM | – | > 10 | – | > 10 µM
8 | COc1ccc2c(c1)CCC1C2CCC2(C)C(NC(=O)CCCCC3CCSS3)CCC12 (configuration not stated) | 5.85 µM | > 100 µM | 25.6 µM | > 100 µM | 15 µM | > 100 µM | > 100 µM | > 100 µM | > 100 µM | > 100 µM | > 100 | > 100 | 4.84 µM | 93.3 µM | 5.49 µM | > 100 µM | > 100 µM | > 100 | 17.5 µM | > 100 µM
9 | CCCCCCC1CCCCN1C(c1ccccc1)C(O)c1ccccc1 (configuration not stated) | 2.61 µM | 6.08 µM | 9.99 µM | 22.1 µM | 11.7 µM | 24.8 µM | 14.8 µM | 31.5 µM | 6.33 µM | 20.9 µM | 10.1 | 22.9 | 3.92 µM | 13.6 µM | 3.09 µM | 11.4 µM | 6.68 µM | 21.1 | 5.98 µM | 18.9 µM
10 | COc1cc(OC)c(OC)cc1/C=C\c1ccnc2ccccc12 | – | 99.1 µM | – | > 100 µM | – | > 67.9 µM | – | > 100 µM | – | 23.5 µM | – | 12.1 | – | 37.3 µM | – | 3.86 µM | – | 1.15 | – | 16.5 µM
11 | NCC[PH+](c1ccccc1)c1ccccc1.NCC[PH+](c1ccccc1)c1ccccc1.[Cl-].[Pt+4] | 14.7 µM | > 65.2 µM | > 100 µM | > 100 µM | > 86.5 µM | > 100 µM | > 100 µM | > 100 µM | > 100 µM | > 100 µM | > 100 | > 100 | 84.5 µM | > 100 µM | > 100 µM | > 100 µM | 99.6 µM | > 100 | 39.3 µM | > 100 µM
